# Records with an inconclusive call do not appear. Active and inactive are the calls of the source.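 How the source made its calls: active means fitted curve falls past -35% at a concentration up to twice the top valid dose; inconclusive means no clear call, values can overlap the other calls; inactive means signal rising instead of falling, plus the rest.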
# Tested on: not listed separately
# Assay: viability loss in HEK293 cells – cell-based, luminescence, dry powder, set 15, cytotoxicity control, dose response (AID 743470)
# Details: HEK293T viability, CellTiter-Glo ATP luminescence, 72 h; at 1.35 µM (top of the series)
row,SMILES,"activity change, negative = cytotoxicity"
1,COc1cc([C@@H]2c3cc4c(cc3[C@@H](O[C@@H]3O[C@@H]5CO[C@@H](C)O[C@H]5[C@H](O)[C@H]3O)[C@H]3COC(=O)[C@H]23)OCO4)cc(OC)c1O,-29% (inactive)

# Same assay, conditions: HEK293T viability, CellTiter-Glo ATP luminescence, 72 h; at 1.6 µM (top of the series)
row,SMILES,"activity change, negative = cytotoxicity"
1,CCN(CCO)CCCOc1ccc2c(Nc3cc(CC(=O)Nc4cccc(F)c4)[nH]n3)ncnc2c1,43.7% (inactive)

# Same assay, conditions: HEK293T viability, CellTiter-Glo ATP luminescence, 72 h; at 6 µM (top of the series)
row,SMILES,"activity change, negative = cytotoxicity"
1,Clc1ccc(-c2cnc3ccc(-c4ccccc4)cn23)cc1,7.25% (inactive)
2,CCC(C)(C)C(=O)O[C@H]1C[C@@H](C)C=C2C=C[C@H](C)[C@H](CC[C@@H]3C[C@@H](O)CC(=O)O3)[C@H]21,11.4% (inactive)

# Same assay, conditions: HEK293T viability, CellTiter-Glo ATP luminescence, 72 h; at 8 µM (top of the series)
row,SMILES,"activity change, negative = cytotoxicity"
1,COc1ccc(S(=O)(=O)N2CC[C@@H]3[C@H](CO)Nc4ccc(-c5ccc(C#N)cc5)cc4[C@@H]32)cc1,-17.6% (inactive)
2,COc1ccc(S(=O)(=O)N2CC[C@@H]3[C@@H](CO)N(C)c4ccc(-c5ccc(F)cc5)cc4[C@@H]32)cc1,0.125% (inactive)
3,COc1ccc(C2=Nn3c(nnc3-c3ccccc3F)SC2)cc1OC,-35.4% (inactive)

# Same assay, conditions: HEK293T viability, CellTiter-Glo ATP luminescence, 72 h; at 12 µM (top of the series)
row,SMILES,"activity change, negative = cytotoxicity"
1,COc1ccc(OC)c(-c2nnc3n2N=C(c2ccc(OC)c(OC)c2)CS3)c1,-29.9% (inactive)
2,COc1ccc(C(=O)CC2(O)C(=O)Nc3c(Cl)ccc(Cl)c32)cc1 (stereo not drawn),-19.6% (inactive)
3,COc1ccc(NC(=O)Nc2ccc3c(c2)C(=O)N([C@@H](C)CO)C[C@H](C)[C@H](CN(C)Cc2ccc4c(c2)OCO4)O3)cc1,20.2% (inactive)

# Same assay, conditions: HEK293T viability, CellTiter-Glo ATP luminescence, 72 h; at 26 µM (top of the series)
row,SMILES,"activity change, negative = cytotoxicity"
1,COc1ccc(S(=O)(=O)N2CC[C@@H]3[C@@H](CO)Nc4ccc(-c5cccc(C#N)c5)cc4[C@@H]32)cc1,-20.5% (inactive)
2,COc1cccc(C2C(C#N)=C(N)Oc3cc(N)ccc32)c1 (stereo not drawn),-23.2% (inactive)
3,N#Cc1ccc(-c2ccc3c(c2)[C@H]2[C@H](CCN2S(=O)(=O)c2cccc(F)c2)[C@@H](CO)N3)cc1,-39.9% (inactive)
4,N#CC1=C(N)Oc2cc(O)ccc2C1c1cccc(Br)c1 (stereo not drawn),-24.3% (inactive)
5,C[C@]1(c2nc3c(C(N)=O)cccc3[nH]2)CCCN1,-21.6% (inactive)
6,COc1ccc(CNc2nc(N3CCC[C@H]3CO)ncc2C(=O)NCc2ncccn2)cc1Cl,-1.87% (inactive)
7,COc1ccc(OC)c(-c2nnc3n2N=C(c2ccc(OC)c(OC)c2)CS3)c1,-31.5% (inactive)
8,Cc1ccccc1C1C(C#N)=C(N)Oc2cc(N)ccc21 (stereo not drawn),-16.9% (inactive)
9,N#Cc1ccc(-c2ccc3c(c2)[C@H]2[C@H](CCN2S(=O)(=O)c2ccccc2F)[C@@H](CO)N3)cc1,-7.37% (inactive)
10,N#CC1=C(N)Oc2ccc3ccccc3c2C1c1cccc(F)c1 (stereo not drawn),-9.08% (inactive)
11,COc1ccc(C2CNC(=O)C2)cc1OC1CCCC1 (stereo not drawn),-2.74% (inactive)
12,COc1ccc(C2=Nn3c(nnc3-c3ccccc3)SC2)cc1OC,-1.77% (inactive)
13,CCCCc1ccc2nc(NC(=O)OC)[nH]c2c1,-29.4% (inactive)
14,N#CC1=C(N)Oc2cc(N)ccc2C1c1cccc(Br)c1 (stereo not drawn),-38% (inactive)
15,COc1ccc(-c2ccc3c(c2)[C@H]2[C@H](CCN2S(=O)(=O)c2ccc(OC)cc2)[C@@H](CO)N3C)cc1,-44.3% (inactive)
16,COc1ccc(-c2ccc3c(c2)[C@H]2[C@H](CCN2S(=O)(=O)c2ccc(OC)cc2)[C@@H](CO)N3)cc1,-6.28% (inactive)
17,Cc1ccc(C2C(C#N)=C(N)Oc3cc(N)ccc32)cc1 (stereo not drawn),-10.5% (inactive)
18,CN1c2ccc(-c3ccc(C#N)cc3)cc2[C@H]2[C@H](CCN2S(=O)(=O)c2ccc(F)cc2)[C@H]1CO,13.6% (inactive)
19,COc1ccc(C2C(C#N)=C(N)Oc3cc(N)ccc32)cc1 (stereo not drawn),-0.135% (inactive)

row,SMILES,"activity change, negative = cytotoxicity"
1,CN1c2ccc(-c3ccc(C#N)cc3)cc2[C@H]2[C@H](CCN2S(=O)(=O)c2cccc(F)c2)[C@H]1CO,-71.9% (inactive)
2,O=C(Nc1c(Cl)cncc1Cl)c1ccc(OC(F)F)c(OCC2CC2)c1,-18.6% (inactive)
3,N#CC1=C(N)Oc2cc3c(cc2C1c1cccc(Br)c1)OCO3 (stereo not drawn),-44.4% (inactive)
4,N#CC1=C(N)Oc2cc(N)ccc2C12C(=O)Nc1ccc(Br)cc12 (stereo not drawn),5.19% (inactive)
5,Cc1ccc(S(=O)(=O)N2CC[C@@H]3[C@@H](CO)Nc4ccc(-c5ccc(C#N)cc5)cc4[C@@H]32)cc1,17.9% (inactive)
6,N#CC1=C(N)Oc2cc(N)ccc2C1c1ccc2ccccc2c1 (stereo not drawn),-9.63% (inactive)
7,COC(=O)c1ccc(C2C(C#N)=C(N)Oc3cc(N)ccc32)cc1 (stereo not drawn),19.4% (inactive)
8,Cc1cccc(C2C(C#N)=C(N)Oc3cc(N)ccc32)c1 (stereo not drawn),-30.4% (inactive)
9,N#CC1=C(N)Oc2cc(N)ccc2C1c1ccc(Cl)cc1 (stereo not drawn),-11.1% (inactive)
10,Cc1c([C@H](C(Cl)Cl)[C@H](O)[C@H]2C[C@H](C)C(=O)O2)ccc2c1C(=O)[C@H]1[C@H]2C[C@@H](Br)[C@@]23O[C@@H](CO[C@H]2O)C[C@]13C,-35.3% (inactive)
11,COc1cccc(S(=O)(=O)N2CC[C@@H]3[C@@H](CO)Nc4ccc(-c5ccc(C#N)cc5)cc4[C@@H]32)c1,-26.5% (inactive)
12,N#CC1=C(N)Oc2cc(OC(=O)c3ccccc3)ccc2C1c1cccc(Br)c1 (stereo not drawn),-25.6% (inactive)
13,COc1cc(Nc2ncc3c(n2)-c2ccc(Cl)cc2C(c2c(F)cccc2OC)=NC3)ccc1C(=O)O,24.7% (inactive)
14,COc1ccc(-c2cc(NC(C)=O)c3ncc(-c4ccc(OC)c(OC)c4)n3c2)cc1,-25.2% (inactive)
15,Cc1ccc([N+](=O)[O-])cc1S(=O)(=O)N(C)C,-23.2% (inactive)
16,COc1ccccc1S(=O)(=O)N1CC[C@@H]2[C@@H](CO)Nc3ccc(-c4ccc(C#N)cc4)cc3[C@@H]21,-22.8% (inactive)
17,COc1ccccc1-c1nnc2n1N=C(c1ccc3c(c1)OCO3)CS2,-39.2% (inactive)
18,CN(C(=O)CCCOc1ccc2[nH]c(=O)ccc2c1)C1CCCCC1,27% (inactive)

# Same assay, conditions: HEK293T viability, CellTiter-Glo ATP luminescence, 72 h; at 50 µM (top of the series)
row,SMILES,"activity change, negative = cytotoxicity"
1,CCC(C)C(=O)OC1CC(C)C=C2C=CC(C)C(CCC(O)CC(O)CC(=O)O)C21 (stereo not drawn),55.2% (inactive)
2,O=P1(NCCCl)OCCCN1CCCl (stereo not drawn),9.21% (inactive)

# Same assay, conditions: HEK293T viability, CellTiter-Glo ATP luminescence, 72 h; at 110 µM (top of the series)
row,SMILES,"activity change, negative = cytotoxicity"
1,O=C(c1cc(Cc2n[nH]c(=O)c3ccccc23)ccc1F)N1CCN(C(=O)C2CC2)CC1,31.3% (inactive)

# Tested on: HEK293T viability, CellTiter-Glo ATP luminescence, 72 h
# Assay: as above
# Details: not given
row,SMILES,AC35 [µM]
1,C=C([C@@H](O)[C@@H](C)O)[C@@H](OC)[C@]1(C)Cc2cc3cc(O[C@H]4CC(OC5CC(O)C(O)C(C)O5)C(O)C(C)O4)cc(O)c3c(O)c2C(=O)[C@H]1OC1CC(OC2CC(OC3CC(C)(O)C(O)C(C)O3)C(O)C(C)O2)C(O)C(C)O1 (stereo partly drawn),0.188
2,COc1ccc(S(=O)(=O)N(C(C)=O)c2ccc(OC(C)=O)c3ccccc23)cc1[N+](=O)[O-],21.5
3,COc1cc(C2C(C#N)=C(N)Oc3cc(N(C)C)ccc32)cc2c1OCO2 (stereo not drawn),0.184
4,COc1ccc(-c2cc(NC=O)c3ncc(-c4ccc(OC)c(OC)c4)n3c2)cc1,5.61
5,CC(C)N1c2ccccc2C(c2ccc(F)cc2)C1/C=C/C(O)CC(O)CC(=O)O (stereo not drawn),4.91
6,Nc1ccn([C@@H]2O[C@H](CO)[C@H](O)C2O)c(=O)n1 (stereo partly drawn),3.18
7,CCc1c2c(nc3ccc(O)cc13)-c1cc3c(c(=O)n1C2)COC(=O)C3(O)CC (stereo not drawn),0.0239
8,CC[C@]1(O)CC2CN(CCc3c([nH]c4ccccc34)[C@@](C(=O)OC)(c3cc4c(cc3OC)N(C=O)[C@H]3[C@@](O)(C(=O)OC)[C@H](OC(C)=O)[C@]5(CC)C=CCN6CC[C@]43[C@@H]65)C2)C1 (stereo partly drawn),0.651
9,COc1ccc(C2=Nn3c(nnc3-c3ccccc3OC)SC2)cc1OC,0.377
10,Nc1ncnc2c1c(-c1cccc(OCc3ccccc3)c1)cn2C1CC(CN2CCCC2)C1 (stereo not drawn),9.93
11,CN1CCN(CCOc2cc(OC3CCOCC3)c3c(Nc4c(Cl)ccc5c4OCO5)ncnc3c2)CC1,23.8
12,Cc1cc(Nc2cc(N3CCN(C)CC3)nc(Sc3ccc(NC(=O)C4CC4)cc3)n2)n[nH]1,3.09
13,COc1ccc(S(=O)(=O)N2CC[C@@H]3[C@@H](CO)Nc4ccc(-c5ccc(C#N)cc5)cc4[C@@H]32)cc1,6.16
14,CC1(C)CC(c2nc(-c3ccc4ccc(-c5ccccc5)nc4c3)c3c(N)nccn23)C1,4.66
15,CN(C)c1ccc2c(c1)OC(N)=C(C#N)C2c1cccc(F)c1 (stereo not drawn),0.586
16,Clc1ccccc1-c1nnc2n1N=C(c1ccc3c(c1)OCO3)CS2,3.54
17,CC[C@@]1(O)C(=O)OCc2c1cc1n(c2=O)Cc2cc3c(CN(C)C)c(O)ccc3nc2-1,0.181
18,N#CC1=C(N)Oc2cc(N)ccc2C1c1ccccc1 (stereo not drawn),17.4
19,N#CC1=C(N)Oc2cc(N)ccc2C1c1cccc(F)c1 (stereo not drawn),4.67
20,CCOC(=O)CCNc1cc(N2CCc3ccccc3CC2)nc(-c2ccccn2)n1,9.37
21,COc1ccc(C2=Nn3c(nnc3-c3ccccc3Cl)SC2)cc1OC,6.79
22,Cc1nc(Nc2ncc(C(=O)Nc3c(C)cccc3Cl)s2)cc(N2CCN(CCO)CC2)n1,38.2
23,CC(C)(O)CCc1ccc(O)c2c(=O)c3c(O)c4c(cc3oc12)O[C@H]1OC=C[C@@]41O,0.0808

# — PubChem BioAssay AID743470 (Broad Institute, 2014)
